According to patent US20240389592A1, “FUNGICIDAL COMPOSITIONS” (SYNGENTA CROP PROTECTION AG, priority 2021, published 2024):

Legend:
[1] = tested on: Phakopsora pachyrhizi (Asian soybean rust); assay: Phakopsora pachyrhizi soybean leaf disk test after whole plant spray; type: in vivo; conditions: single active ingredient, evaluation 11 to 14 days after inoculation
Excerpt: (§1) A synergistic effect exists whenever the action of an active ingredient combination is greater than the sum of the actions of the individual components. The action to be expected E for a given active ingredient combination obeys the so-called COLBY formula and can be calculated as follows (COLBY, S. R. “Calculating synergistic and antagonistic responses of herbicide combination”. Weeds, Vol. 15, pages 20-22; 1967): • ppm=milligrams of active ingredient (=a.i.) per liter of spray mixture • X=% action by active ingredient A) using p ppm of active ingredient • Y=% action by active ingredient B) using q ppm of active ingredient.
(§2) According to COLBY, the expected (additive) action of active ingredients A)+B) using p+q ppm of active ingredient is
(§3) If the action actually observed (O) is greater than the expected action (E), then the action of the combination is super-additive, i.e. there is a synergistic effect. In mathematical terms, synergism corresponds to a positive value for the difference of (O-E). In the case of purely complementary addition of activities (expected activity), said difference (O-E) is zero. A negative value of said difference (O-E) signals a loss of activity compared to the expected activity.
Phakopsora pachyrhizi (Soybean Rust):
Whole soybean plants are treated with the recited active ingredients 4 weeks after planting. 1 day after spraying leaf disks are cut from the first trifoliate leaf. Five repetitions at each rate are conducted. The leaf disks are inoculated with Phakopsora pachyrhizi (Asian soybean rust) one day after treatment. Evaluation of the leaf disks is conducted 11 to 14 days after inoculation and the activity is derived from the relation of the treated vs untreated, infested check. The rates of the active ingredients used are given in Table as g active ingredient (a.i.)/ha.

[2] = tested on: Septoria tritici (leaf blotch); assay: Septoria tritici liquid culture growth inhibition (microtiter plate, PDB); type: cell-based; conditions: single active ingredient, 72 hrs
Excerpt: as §1, §2, §3
Septoria tritici (Leaf Blotch):
Conidia of the fungus from cryogenic storage were directly mixed into nutrient broth (PDB potato dextrose broth). A DMSO solution of the test compounds was placed into a microtiter plate (96-well format) and the nutrient broth containing the fungal spores was added to it. The test plates were incubated at 24 C and the inhibition of growth was determined photometrically after 72 hrs.

[3] = tested on: Glomerella lagenarium syn. Colletotrichum lagenarium (Anthracnose of cucurbits); assay: Glomerella lagenarium liquid culture growth inhibition (microtiter plate, PDB); type: cell-based; conditions: single active ingredient, 72 hrs
Excerpt: A synergistic effect exists whenever the action of an active ingredient combination is greater than the sum of the actions of the individual components. The action to be expected E for a given active ingredient combination obeys the so-called COLBY formula and can be calculated as follows (COLBY, S. R. “Calculating synergistic and antagonistic responses of herbicide combination”. Weeds, Vol. 15, pages 20-22; 1967): • ppm=milligrams of active ingredient (=a.i.) per liter of spray mixture • X=% action by active ingredient A) using p ppm of active ingredient • Y=% action by active ingredient B) using q ppm of active ingredient. According to COLBY, the expected (additive) action of active ingredients A)+B) using p+q ppm of active ingredient is If the action actually observed (O) is greater than the expected action (E), then the action of the combination is super-additive, i.e. there is a synergistic effect. In mathematical terms, synergism corresponds to a positive value for the difference of (O-E). In the case of purely complementary addition of activities (expected activity), said difference (O-E) is zero. A negative value of said difference (O-E) signals a loss of activity compared to the expected activity. Glomerella Lagenarium Syn. Colletotrichum lagenarium (Anthracnose of Cucurbits): Conidia of the fungus from cryogenic storage were directly mixed into nutrient broth (PDB potato dextrose broth). A DMSO solution of the test compounds was placed into a microtiter plate (96-well format) and the nutrient broth containing the fungal spores was added to it. The test plates were incubated at 24 C and the inhibition of growth was determined photometrically after 72 hrs at 620 nm.

| Molecule | Observed Activity (%) ([1]; 0.1 g ai/ha) | Observed Activity (%) ([1]; 0.3 g ai/ha) | Observed Activity (%) ([1]; 0.9 g ai/ha) | Observed Activity (%) ([2]; 0.0246 g ai/ha) | Observed Activity (%) ([2]; 0.074 g ai/ha) | Observed Activity (%) ([2]; 0.22 g ai/ha) | Observed Activity (%) ([3]; 0.74 g ai/ha) | Observed Activity (%) ([3]; 2.22 g ai/ha) | Observed Activity (%) ([3]; 6.66 g ai/ha) | Observed Activity (%) ([3]; 20 g ai/ha, 24 C, 620 nm) | Observed Activity (%) ([3]; 10 g ai/ha) | inhibition at 0.1 g/ha ([1]; Phakopsora pachyrhizi, foliar, 0.1 g ai/ha, read-out: Observed Activity (%)) | Observed Activity (%) ([2]; 10 g ai/ha) | Observed Activity (%) ([2]; 20 g ai/ha, 24 C) |
| --- | --- | --- | --- | --- | --- | --- | --- | --- | --- | --- | --- | --- | --- | --- |
| CCC(=O)Oc1c(OC)ccnc1C(=O)N[C@@H](C)C(=O)O[C@@H](C)[C@@H](C)c1ccccc1C [Metarylpicoxamid, metarylpicoxamid] | 0% | 51% | – | – | – | – | – | – | – | – | – | – | – | – |
| inpyrfluxam | 13% | 25% | 68% | 20% | 70% | 90% | – | – | – | – | – | – | – | – |
| O=C(Nc1ccccc1F)c1ccc(-c2noc(C(F)(F)F)n2)cc1 [Flufenoxadiazam, flufenoxadiazam] | 3% | 5% | 31% | – | – | – | 20% | 20% | 50% | 90% | – | – | – | – |
| CCOC(=O)c1cnn(Cc2ccc(O/C=C(\OCC)C(F)(F)F)cc2)c1 [Compound A-1.2, ethyl 1-[[4-[[(1Z)-2-ethoxy-3,3,3-trifluoro-1-propen-1-yl]oxy]phenyl]methyl]-1H-pyrazole-4-carboxylate] | – | – | – | – | – | – | – | – | – | 0% | 0% | 16% | 0% | 0% |
